The values below come from patent publication US20100222344A1, “4-ANILINO-SUBSTITUTED QUINAZOLINE DERIVATIVES AS TYROSINE KINASE INHIBITORS” (AstraZeneca AB, priority 2005, published 2010).

The target of one test is T1, EGFR tyrosine kinase (Homo sapiens, UniProt P00533).
T1 construct: Recombinant intracellular fragments of EGFR, erbB2 and erbB4; made in house; host or cells: baculovirus/Sf21 insect cells (cleared lysate used)
The experiment in a line: Test (a) protein tyrosine kinase phosphorylation assay, EGFR. Type of test: biochemical. The settings on record: read-out: IC50 Test (a): Inhibition of EGFR tyrosine kinase protein phosphorylation. The method, then:
(§1) a) Protein Tyrosine Kinase phosphorylation Assays
(§2) This test measures the ability of a test compound to inhibit the phosphorylation of a tyrosine containing polypeptide substrate by EGFR, erbB2 and erbB4 tyrosine kinase enzyme.
(§3) Recombinant intracellular fragments of EGFR, erbB2 and erbB4 (accession numbers X00588, X03363 and L07868 respectively) were cloned and expressed in the baculovinis/Sf21 system. […]
(§4) Constitutive kinase activity of these recombinant proteins was determined by their ability to phosphorylate a synthetic peptide (made up of a random co-polymer of Glutamic Acid, Alanine and Tyrosine in the ratio of 6:3:1). […]
(§5) The immobilised phospho-peptide product of the reaction was detected by immunological methods. […] After further washing, HRP activity in each well of the plate was measured colorimetrically using 22′-Azino-di-[3-ethylbenzthiazoline sulfonate (6)]diammonium salt crystals (ABTS™ from Roche) as a substrate.
(§6) Quantification of colour development and thus enzyme activity was achieved by the measurement of absorbance at 405 nm on a Molecular Devices ThermoMax microplate reader. Kinase inhibition for a given compound was expressed as an IC50 value. […] The range of phosphorylation was calculated from the positive (vehicle plus ATP) and negative (vehicle minus ATP) control values.

A further test addresses T2, erbB2 tyrosine kinase (Homo sapiens, UniProt P04626).
T2 construct: Recombinant intracellular fragments of EGFR, erbB2 and erbB4; made in house; host or cells: baculovirus/Sf21 insect cells (cleared lysate used)
As to the kind of experiment: Test (a) protein tyrosine kinase phosphorylation assay, erbB2. It counts as biochemical. The settings on record: read-out: IC50 Test (a): Inhibition of erbB2 tyrosine kinase protein phosphorylation. Here is the method: as §1, §2, §3, §4, §5, §6

Another test deals with BT474C cells. The experiment in a line: Test (e) BT474C cell proliferation assay. It counts as cell-based. The settings on record: Homo sapiens, 96 h, four-day MTS assay, read-out: IC50 Test (e): Inhibition of proliferation of BT474C cells. From the text: The BT-474 tumour cell line (human mammary carcinoma) was obtained from Dr Baselga (at Laboratorio Recerca Oncologica, Paseo Vall D'Hebron 119-129, Barcelona 08035, Spain). This cell line was subcloned and a certain population (hereinafter referred to as “BT474C”) was obtained.
e) BT474C Cell Proliferation Assay
BT474C cells are a sub-cloned population of in vivo competent cells, as discussed above.
The BT474C assay is a MTS (3-(4,5-dimethylthiazol-2-yl)-5-(3-carboxymethoxyphenyl)-2-(4-sulfophenyl)-2H-tetrazolium, inner salt—Promega G1111) endpoint-based cell proliferation assay, which measures the ability of a test compound to inhibit the proliferation of cells over a four-day period. […] Cell density is measured using a haemocytometer and viability is calculated using Trypan Blue solution before being further diluted in Assay Medium and seeded at a density of 1×10^4 cells per well (in 100 μl) into clear bottomed 96 well plates (Costar 3598). […] The plate is read at 490 nm on a spectrophotometer.
Assay plates are left at 37° C. for 4 days and then treated with MTS solution (as above), which is converted to a soluble formazan product by active cells. After incubating the plates for 2 hours the reaction is stopped by the addition of 10% SDS (Sodium dodecyl sulphate) and the plates are read at 490 nm on a spectrophotometer giving absorbance values relative to the concentration of converted dye. […]

pIC50: −log10 of the molar value.

T1 sequence (P00533 669-1210 limits assumed): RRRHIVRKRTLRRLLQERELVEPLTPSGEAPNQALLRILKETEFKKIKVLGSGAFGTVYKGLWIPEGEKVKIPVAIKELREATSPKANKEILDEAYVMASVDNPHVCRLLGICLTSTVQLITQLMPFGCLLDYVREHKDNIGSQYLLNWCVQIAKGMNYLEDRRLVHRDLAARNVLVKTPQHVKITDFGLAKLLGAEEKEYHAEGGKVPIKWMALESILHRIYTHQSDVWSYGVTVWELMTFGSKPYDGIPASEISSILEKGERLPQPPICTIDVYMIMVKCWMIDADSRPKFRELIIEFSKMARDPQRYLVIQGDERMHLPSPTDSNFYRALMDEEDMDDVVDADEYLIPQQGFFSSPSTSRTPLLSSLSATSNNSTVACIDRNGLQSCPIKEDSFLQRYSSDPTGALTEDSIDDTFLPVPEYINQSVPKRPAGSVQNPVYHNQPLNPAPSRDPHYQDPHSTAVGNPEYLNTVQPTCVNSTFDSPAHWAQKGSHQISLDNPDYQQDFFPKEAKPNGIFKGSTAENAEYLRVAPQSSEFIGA
T2 sequence (P04626 676-1255 limits assumed): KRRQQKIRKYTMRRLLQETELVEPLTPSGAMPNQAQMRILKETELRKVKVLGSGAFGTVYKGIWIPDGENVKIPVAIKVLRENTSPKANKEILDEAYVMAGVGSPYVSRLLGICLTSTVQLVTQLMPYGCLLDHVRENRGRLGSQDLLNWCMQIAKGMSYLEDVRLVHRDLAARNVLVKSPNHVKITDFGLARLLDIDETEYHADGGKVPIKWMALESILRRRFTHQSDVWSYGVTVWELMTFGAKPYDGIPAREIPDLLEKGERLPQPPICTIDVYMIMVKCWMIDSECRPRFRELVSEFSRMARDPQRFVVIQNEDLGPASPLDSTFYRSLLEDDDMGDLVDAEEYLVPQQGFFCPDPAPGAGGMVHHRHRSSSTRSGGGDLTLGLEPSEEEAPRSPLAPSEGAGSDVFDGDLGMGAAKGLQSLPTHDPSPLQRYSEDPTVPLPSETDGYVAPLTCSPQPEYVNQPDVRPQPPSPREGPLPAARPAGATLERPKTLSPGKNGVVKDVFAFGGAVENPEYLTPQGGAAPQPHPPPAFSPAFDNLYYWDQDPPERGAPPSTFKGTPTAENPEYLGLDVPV

In the case of `CSCCCOc1ccc(Nc2ncnc3cccc(O[C@H](C)C(=O)N4CCOCC4)c23)cc1Cl` [Example 3, N-{3-chloro-4-[3-(methylthio)propoxy]phenyl}-5-[(1R)-1-methyl-2-morpholin-4-yl-2-oxoethoxy]quinazolin-4-amine], the pIC50 at EGFR tyrosine kinase is 6.77; on erbB2 tyrosine kinase, 8.52; in the test with BT474C cells, 6.38.

Consider `C[C@@H](Oc1cccc2ncnc(Nc3ccc(OCC4CCCO4)c(Cl)c3)c12)C(=O)N1CCOCC1` (stereo partly drawn) [Example 2, N-[3-chloro-4-(tetrahydrofuran-2-ylmethoxy)phenyl]-5-[(1R)-1-methyl-2-morpholin-4-yl-2-oxoethoxy]quinazolin-4-amine], for which the pIC50 was 6.44 at EGFR tyrosine kinase, 8.10 at erbB2 tyrosine kinase and 6.47 in the test on BT474C cells.
